In PubChem BioAssay (NCI):
Where “and” joins values, the source holds several entries; their conditions need not be identical. Equal values may be shown once.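 Values below derive from 48-hour exposures of cells grown in 96-well plates, with endpoints linearly interpolated between the two concentrations bracketing the appropriate inhibition level. The concentration for 50% growth inhibition is given as GI50. TGI: concentration producing complete growth inhibition.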

Key:
Assay in all cases: NCI anticancer screen, dose series, 48 h
HCC-2998 colon = system: HCC-2998 colon
HCT-116 colon = system: HCT-116 colon
HOP-62 NSCLC = system: HOP-62 NSCLC
LOX IMVI melanoma = system: LOX IMVI melanoma
SNB-19 CNS = system: SNB-19 CNS
HOP-92 NSCLC = system: HOP-92 NSCLC
IGROV1 ovarian = system: IGROV1 ovarian
SN12C renal = system: SN12C renal
A498 renal = system: A498 renal
NCI-H226 lung = system: NCI-H226 lung
SW-620 colon = system: SW-620 colon
SK-MEL-28 melanoma = system: SK-MEL-28 melanoma
UO-31 renal = system: UO-31 renal
786-0 renal = system: 786-0 renal
KM12 colon = system: KM12 colon
RPMI-8226 leukemia = system: RPMI-8226 leukemia
OVCAR-3 ovarian = system: OVCAR-3 ovarian

SMILES | TGI (HCC-2998 colon) | TGI (HCT-116 colon) | TGI (HOP-62 NSCLC) | TGI (LOX IMVI melanoma) | TGI (SNB-19 CNS) | TGI (HOP-92 NSCLC) | TGI (IGROV1 ovarian) | TGI (SN12C renal) | TGI (A498 renal) | TGI (NCI-H226 lung) | TGI (SW-620 colon) | TGI (SK-MEL-28 melanoma) | TGI (UO-31 renal) | TGI (786-0 renal) | TGI (KM12 colon) | TGI (RPMI-8226 leukemia) | TGI (OVCAR-3 ovarian) | GI50 (SN12C renal) | GI50 (HOP-62 NSCLC) | GI50 (HOP-92 NSCLC)
COC(=O)/C=C1\C(CO[Si](C)(C)C(C)(C)C)OC(n2ccc(=O)[nH]c2=O)C1O (stereo not drawn) | 26.2 µM | 16.9 µM | > 31.1 µM | 15.5 µM | > 100 µM | 44 µM | > 75.2 µM | > 54.4 µM | 41.6 µM | 19.5 µM | > 100 µM | 21.4 µM | 29.6 µM | 16.6 µM | > 39.4 µM | 29.4 µM | 54.5 µM |  |  | 
CCOC(OCC)(OCC)C(Br)CC (stereo not drawn) | > 100 µM | 19 µM | > 100 µM | > 100 µM | > 100 µM | > 100 µM | > 100 µM | > 100 µM | > 100 µM | > 100 µM |  | > 100 µM | > 100 µM | 37.8 µM | > 100 µM | 47.5 µM | > 100 µM |  |  | 
CCOC(=O)c1nc2ccc(C(F)(F)F)cc2nc1Oc1ccc(OC)cc1 |  | > 100 µM | > 100 µM | > 100 µM | > 100 µM | > 100 µM | > 100 µM | > 100 µM | > 100 µM | > 100 µM | > 100 µM | > 100 µM | > 100 µM | > 100 µM | > 100 µM | > 100 µM | > 100 µM |  |  | 
O=[N+]([O-])c1ccc2c3c1[C@@H]1O[C@@H]1c1cccc(c1-3)[C@@H]1O[C@H]21 |  | 5.95 µM | 34.4 µM | 3.44 µM | > 58.5 µM | 28.6 µM | 2.72 µM | 15.7 µM | 8.87 µM | > 80.9 µM | 6.7 µM | > 22.1 µM |  | 7.85 µM | 10.1 µM | > 100 µM | 10.9 µM | 3.36 µM |  | 
CCOc1ccc(OP2(=O)NC(=O)C=C(C)N2)cc1 (stereo not drawn) |  | > 100 µM | > 100 µM | > 100 µM | > 100 µM | > 100 µM | > 100 µM | > 100 µM | > 100 µM | > 100 µM | > 100 µM | > 100 µM | > 100 µM | > 100 µM | > 100 µM | > 100 µM | > 100 µM |  |  | 
COC(=O)C(=O)C(C(=O)C(=O)Nc1cccc(OC)c1)c1nc2ccc(Cl)cc2[nH]c1=O (stereo not drawn) | > 100 µM | > 100 µM |  | > 100 µM | > 100 µM | > 100 µM | > 100 µM | > 100 µM | > 100 µM | > 100 µM | > 100 µM | > 100 µM | > 100 µM | > 100 µM | > 100 µM | > 100 µM | > 100 µM |  |  | 
O=C(O)CCC(NC(=O)c1ccc(Nc2nc3ccc(C(F)(F)F)cc3nc2C(=O)O)cc1)C(=O)O (stereo not drawn) | > 100 µM | > 100 µM | > 100 µM | > 100 µM | > 100 µM | > 100 µM | > 100 µM | > 100 µM | > 100 µM | > 100 µM | > 100 µM |  | > 100 µM | > 100 µM | > 100 µM | > 100 µM | > 100 µM |  |  | 
N#CC1=C(S)N(C2OC(CO)C(O)C(O)C2O)C(c2ccccc2)=CC1c1ccco1 (stereo not drawn) | > 100 µM | > 100 µM | > 100 µM | 93 µM | > 100 µM | > 100 µM | > 100 µM | > 100 µM | > 100 µM | > 100 µM |  | > 100 µM | > 100 µM | > 100 µM | > 100 µM | > 100 µM | > 100 µM |  |  | 
CC(C)(C)C1CC[C@H]2c3c([nH]c4ccccc34)[C@H]3C(=O)N(c4ccc(F)cc4)C(=O)[C@H]3[C@H]2C1 (stereo partly drawn) | 28.4 µM | 25 µM | 30.8 µM | 35.2 µM | 29.8 µM | 48.1 µM | 35.3 µM | 23.6 µM | 45.7 µM | 35.3 µM | 35.8 µM | 46.5 µM | 29.7 µM | 23.5 µM | 27.8 µM |  | 31 µM |  |  | 
Cc1cccc(C)c1NC(=O)C(=O)CC(=O)c1sc(Nc2c(C)cccc2C)nc1C | > 100 µM | > 100 µM | > 100 µM | > 100 µM | > 100 µM | > 100 µM | > 100 µM | > 100 µM | > 100 µM | > 100 µM | > 100 µM |  | > 100 µM | > 100 µM | > 100 µM | > 100 µM | > 100 µM |  |  | 
CC(C)(C)n1c(=O)n2c(-c3ccccc3)c(-c3ccccc3)n2c1=O | > 100 µM | > 100 µM |  | > 100 µM | > 100 µM | > 100 µM | > 100 µM | > 100 µM | > 100 µM | > 100 µM | > 100 µM | > 100 µM | > 100 µM | > 100 µM | > 100 µM | 61.1 µM | > 100 µM |  |  | 
CCOC(=O)C1(C)CCC(C(=O)OC)C1=O (stereo not drawn) | > 100 µM | > 100 µM | > 100 µM | 32.9 µM | > 100 µM | > 100 µM | > 100 µM | > 100 µM | > 100 µM | > 100 µM |  | > 100 µM | > 100 µM | > 100 µM | > 100 µM | > 100 µM | > 100 µM |  |  | 
Cc1cnc2[nH]c(-c3cccc4ccccc34)cc(=O)c2c1 | 0.029 µM and 0.0576 µM | > 100 µM | > 100 µM | 79.6 µM | > 100 µM | 33.5 µM | 43.5 µM | > 100 µM | 0.00286 µM | 59.9 µM | > 100 µM | > 100 µM | 34 µM | > 100 µM | 0.25 µM and 1.45 µM | 28.2 µM |  | 0.042 µM | 0.127 µM | 0.0464 µM
COC(=O)N/N=c1\cc(C(=O)Nc2ccc(C)c(C)c2)oc2cc(O)ccc12 | > 100 µM | > 100 µM | > 100 µM | > 100 µM | > 100 µM | > 100 µM | > 100 µM | > 100 µM | > 100 µM | > 100 µM | > 100 µM | > 100 µM | > 100 µM | > 100 µM | > 100 µM |  | > 100 µM |  |  | 
